From ChEMBL document CHEMBL3826930, “Antitumor activities of biscoumarin and dihydropyran derivatives” (Bioorg Med Chem Lett, 2016)
≈ marks a conversion by molar mass, not a printed value. Blank lines part the entries; values can stand above or below the compound they belong to.

What was measured:
[1] = Antiproliferative activity against human HuTu 80 cells after 48 hrs by MTT assay; assay type: functional, cell-based; conditions: HuTu80, 48 h
[2] = Antiproliferative activity against human PANC1 cells after 48 hrs by MTT assay; assay type: functional, cell-based; conditions: PANC-1, 48 h
4T1 [3] = assay: Antiproliferative activity against mouse 4T1 cells after 48 hrs by MTT assay; assay type: functional, cell-based; conditions: 4T1, 48 h
Mus musculus [4] = assay: Acute toxicity in Kunming mouse assessed as survival at 500 mg/kg, administered as single dose measured on day 14 post dose; assay type: organism-based; conditions: in vivo
Mus musculus [5] = assay: Acute toxicity in Kunming mouse assessed as physical/abnormal changes in skin at 500 mg/kg, administered as single dose after 14 days; assay type: organism-based; conditions: in vivo, 336 h
Mus musculus [6] = assay: Acute toxicity in Kunming mouse assessed as sleep pattern abnormality at 500 mg/kg, administered as single dose after 14 days; assay type: organism-based; conditions: in vivo, 336 h
[7] = (§1) Cytotoxicity against HUVEC assessed as reduction in cell survival after 48 hrs by MTT assay; assay type: cell-based, Homo sapiens; conditions: human, HUVEC cells
HUVEC = assay: as §1; assay type: cell-based, Homo sapiens; conditions: Homo sapiens, HUVEC, 48 h
HuTu80 = assay: Selectivity index, ratio of IC50 for HUVEC to IC50 for human HuTu 80 cells
HEK293 [8] = assay: Selectivity index, ratio of IC50 for HEK293 cells to IC50 for human PANC1 cells; assay type: functional
Mus musculus [9] = assay: Acute toxicity in Kunming mouse assessed as structural abnormality in kidney at 500 mg/kg, administered as single dose after 14 days by hematoxylin and eosin staining based histological analysis; assay type: organism-based; conditions: in vivo, 336 h
PANC-1 = assay: Selectivity index, ratio of IC50 for HUVEC to IC50 for human PANC1 cells
HEK293 [10] = assay: (§2) Cytotoxicity against HEK293 cells assessed as reduction in cell survival after 48 hrs by MTT assay; assay type: cell-based, Homo sapiens; conditions: Homo sapiens, HEK293, 48 h
[11] = as §2; assay type: cell-based, Homo sapiens; conditions: human, HEK293 cells
HEK293 [12] = assay: Selectivity index, ratio of IC50 for HEK293 cells to IC50 for human HuTu 80 cells; assay type: functional
Mus musculus [13] = assay: Acute toxicity in Kunming mouse assessed as structural abnormality in liver at 500 mg/kg, administered as single dose after 14 days by hematoxylin and eosin staining based histological analysis; assay type: organism-based; conditions: in vivo, 336 h
Mus musculus [14] = assay: Acute toxicity in Kunming mouse assessed as induction of salivation at 500 mg/kg, administered as single dose after 14 days; assay type: organism-based; conditions: in vivo, 336 h
HEK293 [15] = assay: Selectivity index, ratio of IC50 for HEK293 cells to IC50 for mouse 4T1 cells; assay type: functional
Mus musculus [16] = assay: Acute toxicity in Kunming mouse assessed as behavior pattern abnormality at 500 mg/kg, administered as single dose after 14 days; assay type: organism-based; conditions: in vivo, 336 h
Mus musculus [17] = assay: Acute toxicity in Kunming mouse assessed as physical/abnormal changes in mucus membrane at 500 mg/kg, administered as single dose after 14 days; assay type: organism-based; conditions: in vivo, 336 h
Mus musculus [18] = assay: Acute toxicity in Kunming mouse assessed as tremor induction at 500 mg/kg, administered as single dose after 14 days; assay type: organism-based; conditions: in vivo, 336 h
Mus musculus [19] = assay: Acute toxicity in Kunming mouse assessed as physical/abnormal changes in fur at 500 mg/kg, administered as single dose after 14 days; assay type: organism-based; conditions: in vivo, 336 h
Mus musculus [20] = assay: Acute toxicity in Kunming mouse assessed as physical/abnormal changes in eyes at 500 mg/kg, administered as single dose after 14 days; assay type: organism-based; conditions: in vivo, 336 h
4T1 [21] = assay: Selectivity index, ratio of IC50 for HUVEC to IC50 for mouse 4T1 cells

SMILES: N#CC1=C(N)Oc2c(c(=O)oc3ccccc23)C1c1ccc([N+](=O)[O-])cc1 (stereo not given)
- IC50 [1]: 97 µg/mL (≈ 268 µM)
- IC90 [1]: 187 µg/mL (≈ 518 µM)
- IC50 [2]: 218 µg/mL (≈ 604 µM)
- IC90 [2]: 348 µg/mL (≈ 963 µM)
- IC50 (4T1 [3]): 142 µg/mL (≈ 394 µM)
- IC90 (4T1 [3]): 289 µg/mL (≈ 801 µM)

- IC50 (4T1 [3]): 117 µg/mL (≈ 378 µM)
- IC90 (4T1 [3]): 288 µg/mL (≈ 936 µM)
SMILES: CC(C)(C)c1ccc(C2C(C#N)=C(N)OC3=C2C(=O)CC3)cc1 (stereo not given)
- IC50 [1]: 103 µg/mL (≈ 334 µM)
- IC90 [1]: 233 µg/mL (≈ 757 µM)
- IC50 [2]: 219 µg/mL (≈ 711 µM)
- IC90 [2]: 435 µg/mL (≈ 1410 µM)

SMILES: N#Cc1ccc(C(c2c(O)c3ccccc3oc2=O)c2c(O)c3ccccc3oc2=O)cc1
- Activity (Mus musculus [4]): Non-toxic
- Activity (Mus musculus [5]): Non-toxic
- Activity (Mus musculus [6]): Non-toxic
- IC90 at 48 h [7]: 322 µg/mL (≈ 735 µM)
- IC50 (HUVEC): 162 µg/mL (≈ 371 µM)
- Ratio IC50 (HuTu80): 3.4
- Ratio IC50 (HEK293 [8]): 1.9
- Activity (Mus musculus [9]): Non-toxic
- Ratio IC50 (PANC-1): 1.73
- IC50 (HEK293 [10]): 180 µg/mL (≈ 411 µM)
- IC90 at 48 h [11]: 343 µg/mL (≈ 783 µM)
- IC50 [1]: 47.6 µg/mL (≈ 109 µM)
- IC90 [1]: 98.3 µg/mL (≈ 225 µM)
- Ratio IC50 (HEK293 [12]): 3.8
- Activity (Mus musculus [13]): Non-toxic
- Activity (Mus musculus [14]): Non-toxic
- Ratio IC50 (HEK293 [15]): 3.5
- Activity (Mus musculus [16]): Non-toxic
- Activity (Mus musculus [17]): Non-toxic
- Activity (Mus musculus [18]): Non-toxic
- Activity (Mus musculus [19]): Non-toxic
- IC50 [2]: 93.5 µg/mL (≈ 214 µM)
- IC90 [2]: 202 µg/mL (≈ 461 µM)
- Activity (Mus musculus [20]): Non-toxic
- Ratio IC50 (4T1 [21]): 3.1
- IC50 (4T1 [3]): 51.5 µg/mL (≈ 118 µM)
- IC90 (4T1 [3]): 102 µg/mL (≈ 233 µM)

SMILES: COc1ccccc1C(c1c(O)c2ccccc2oc1=O)c1c(O)c2ccccc2oc1=O
- Activity (Mus musculus [4]): Non-toxic
- Activity (Mus musculus [5]): Non-toxic
- Activity (Mus musculus [6]): Non-toxic
- IC90 at 48 h [7]: 269 µg/mL (≈ 607 µM)
- IC50 (HUVEC): 119 µg/mL (≈ 270 µM)
- Ratio IC50 (HuTu80): 6.7
- Ratio IC50 (HEK293 [8]): 1.9
- Activity (Mus musculus [9]): Non-toxic
- Ratio IC50 (PANC-1): 1.9
- IC50 (HEK293 [10]): 117 µg/mL (≈ 264 µM)
- IC90 at 48 h [11]: 282 µg/mL (≈ 638 µM)
- IC50 [1]: 17.9 µg/mL (≈ 40.5 µM)
- IC90 [1]: 110 µg/mL (≈ 248 µM)
- Ratio IC50 (HEK293 [12]): 6.5
- Activity (Mus musculus [13]): Non-toxic
- Activity (Mus musculus [14]): Non-toxic
- Ratio IC50 (HEK293 [15]): 2.2
- Activity (Mus musculus [16]): Non-toxic
- Activity (Mus musculus [17]): Non-toxic
- Activity (Mus musculus [18]): Non-toxic
- Activity (Mus musculus [19]): Non-toxic
- IC50 [2]: 62.1 µg/mL (≈ 140 µM)
- IC90 [2]: 110 µg/mL (≈ 249 µM)
- Activity (Mus musculus [20]): Non-toxic
- Ratio IC50 (4T1 [21]): 2.3
- IC50 (4T1 [3]): 52.2 µg/mL (≈ 118 µM)
- IC90 (4T1 [3]): 133 µg/mL (≈ 301 µM)

- IC50 (4T1 [3]): 125 µg/mL (≈ 452 µM)
- IC90 (4T1 [3]): 299 µg/mL (≈ 1080 µM)
SMILES: N#CC1=C(N)OC2=C(C(=O)CC2)C1c1cccc(C#N)c1 (stereo not given)
- IC50 [1]: 191 µg/mL (≈ 690 µM)
- IC90 [1]: 381 µg/mL (≈ 1370 µM)
- IC50 [2]: 143 µg/mL (≈ 515 µM)
- IC90 [2]: 317 µg/mL (≈ 1140 µM)

SMILES: N#CC1=C(N)Oc2c(c(=O)oc3ccccc23)C1c1ccc(Br)cc1 (stereo not given)
- IC50 [1]: > 300 µg/mL
- IC90 [1]: 447 µg/mL (≈ 1130 µM)
- IC50 [2]: > 300 µg/mL
- IC90 [2]: > 500 µg/mL
- IC50 (4T1 [3]): > 300 µg/mL
- IC90 (4T1 [3]): > 500 µg/mL

SMILES: CC(C)c1ccc(C2C(C#N)=C(N)Oc3c2c(=O)oc2ccccc32)cc1 (stereo not given)
- IC50 [1]: 238 µg/mL (≈ 664 µM)
- IC90 [1]: > 500 µg/mL
- IC50 [2]: 256 µg/mL (≈ 715 µM)
- IC90 [2]: > 500 µg/mL
- IC50 (4T1 [3]): > 300 µg/mL
- IC90 (4T1 [3]): > 500 µg/mL

- IC50 (4T1 [3]): 127 µg/mL (≈ 396 µM)
- IC90 (4T1 [3]): 307 µg/mL (≈ 955 µM)
SMILES: N#CC1=C(N)OC2=C(C(=O)CC2)C1c1ccc(Cl)cc1Cl (stereo not given)
- IC50 [1]: 150 µg/mL (≈ 466 µM)
- IC90 [1]: 302 µg/mL (≈ 941 µM)
- IC50 [2]: 156 µg/mL (≈ 486 µM)
- IC90 [2]: 325 µg/mL (≈ 1010 µM)
